Read-outs that look alike come from different tables or passages of the source.
Tests used:
MAGL [1] = target: T1, MAGL (Mus musculus, UniProt O35678); test: In vitro competitive activity-based protein profiling, MAGL, mouse; conditions: read-out: MAGL % inh. 1 μM (mouse)
T1 sequence (O35678 1-303): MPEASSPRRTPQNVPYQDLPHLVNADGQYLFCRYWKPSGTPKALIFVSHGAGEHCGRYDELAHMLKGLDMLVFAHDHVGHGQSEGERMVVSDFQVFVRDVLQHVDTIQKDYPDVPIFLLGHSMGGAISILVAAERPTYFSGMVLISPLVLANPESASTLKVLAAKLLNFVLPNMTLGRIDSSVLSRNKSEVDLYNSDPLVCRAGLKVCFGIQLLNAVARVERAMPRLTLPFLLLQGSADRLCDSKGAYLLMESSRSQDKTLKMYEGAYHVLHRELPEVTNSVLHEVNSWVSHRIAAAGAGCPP

FAAH [2] = target: T2, FAAH (Homo sapiens, UniProt O00519); test: In vitro competitive activity-based protein profiling, FAAH, human; conditions: for inhibition at 1 µM: read-out: FAAH % inh. 1 μM (human)
T2 sequence (O00519 1-579): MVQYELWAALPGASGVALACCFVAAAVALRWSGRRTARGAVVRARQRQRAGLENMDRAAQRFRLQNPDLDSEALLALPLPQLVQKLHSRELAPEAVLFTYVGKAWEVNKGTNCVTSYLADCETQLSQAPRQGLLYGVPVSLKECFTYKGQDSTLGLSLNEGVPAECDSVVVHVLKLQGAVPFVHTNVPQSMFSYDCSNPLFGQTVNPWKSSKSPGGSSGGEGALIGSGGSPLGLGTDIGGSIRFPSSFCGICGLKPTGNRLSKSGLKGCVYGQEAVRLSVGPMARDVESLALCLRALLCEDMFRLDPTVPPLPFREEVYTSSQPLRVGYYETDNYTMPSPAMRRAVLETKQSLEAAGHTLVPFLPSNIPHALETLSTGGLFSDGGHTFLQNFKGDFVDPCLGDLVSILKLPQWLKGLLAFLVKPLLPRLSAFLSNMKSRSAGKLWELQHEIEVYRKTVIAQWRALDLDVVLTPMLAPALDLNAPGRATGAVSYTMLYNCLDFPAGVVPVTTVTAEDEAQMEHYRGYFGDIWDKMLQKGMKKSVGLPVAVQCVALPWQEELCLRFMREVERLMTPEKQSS

FAAH [3] = target: T3, FAAH (Mus musculus, UniProt O08914); test: In vitro competitive activity-based protein profiling, FAAH, mouse; conditions: read-out: FAAH % inh. 1 μM (mouse)
T3 sequence (O08914 1-579): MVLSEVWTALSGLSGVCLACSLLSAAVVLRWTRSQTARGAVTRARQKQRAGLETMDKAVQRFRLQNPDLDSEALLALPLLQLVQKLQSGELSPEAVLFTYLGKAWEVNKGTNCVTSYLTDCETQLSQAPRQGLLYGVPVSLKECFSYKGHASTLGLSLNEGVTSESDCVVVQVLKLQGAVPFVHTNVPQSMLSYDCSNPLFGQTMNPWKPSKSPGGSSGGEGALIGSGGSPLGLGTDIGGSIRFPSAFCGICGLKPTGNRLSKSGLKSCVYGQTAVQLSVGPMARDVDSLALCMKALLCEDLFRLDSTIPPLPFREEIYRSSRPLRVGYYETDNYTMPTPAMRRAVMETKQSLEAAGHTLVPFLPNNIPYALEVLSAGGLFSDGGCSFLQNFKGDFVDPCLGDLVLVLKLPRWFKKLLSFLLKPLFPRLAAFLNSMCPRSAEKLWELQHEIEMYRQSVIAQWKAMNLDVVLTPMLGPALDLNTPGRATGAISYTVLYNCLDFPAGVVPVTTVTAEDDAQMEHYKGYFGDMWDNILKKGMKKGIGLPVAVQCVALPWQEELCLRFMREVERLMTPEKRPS

MAGL [4] = target: T1, MAGL; test: Mouse brain proteomes from inhibitor treated mice (oral gavage, sacrificed 4 h after administration); type: in vivo; set-up: mouse brain membrane fraction for mouse assays; from tissue; host or cells: mouse brain (membrane fraction in vitro; brain proteomes of treated C57Bl/6J mice in vivo); conditions: 5 mg/kg oral gavage, brain proteome 4 h after administration, read-out: MAGL % inh. 5 mg/kg (mouse)
FAAH [5] = target: T3, FAAH; test: Mouse brain proteomes from inhibitor treated mice (oral gavage, sacrificed 4 h after administration), FAAH; type: in vivo; set-up: mouse brain membrane fraction for mouse assays; from tissue; host or cells: mouse brain (membrane fraction in vitro; brain proteomes of treated C57Bl/6J mice in vivo); conditions: 5 mg/kg oral gavage, brain proteome 4 h after administration, read-out: FAAH % inh. 5 mg/kg (mouse)
MAGL [6] = target: T4, MAGL (Homo sapiens, UniProt Q99685); test: In vitro competitive activity-based protein profiling, MAGL, human; conditions: read-out: MAGL % inh. 1 μM (human)
T4 sequence (Q99685 1-303): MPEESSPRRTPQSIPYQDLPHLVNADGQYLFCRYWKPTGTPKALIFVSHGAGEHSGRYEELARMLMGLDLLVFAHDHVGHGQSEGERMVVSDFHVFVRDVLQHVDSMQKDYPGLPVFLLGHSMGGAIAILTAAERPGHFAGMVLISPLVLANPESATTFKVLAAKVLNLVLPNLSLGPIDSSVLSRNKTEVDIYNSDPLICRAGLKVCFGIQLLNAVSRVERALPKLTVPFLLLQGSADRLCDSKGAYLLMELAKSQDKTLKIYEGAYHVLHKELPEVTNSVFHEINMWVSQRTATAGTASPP

| inhibition at 1 µM (MAGL [1]) | IC50 (FAAH [2]) | inhibition at 1 µM (FAAH [3]) | inhibition at 5 mg/kg (MAGL [4]) | inhibition at 5 mg/kg (FAAH [5]) | inhibition at 1 µM (MAGL [6]) | inhibition at 1 µM (FAAH [2]) | inhibition at 5 mg/kg (MAGL [4]; C57Bl/6J mice) | SMILES |
| --- | --- | --- | --- | --- | --- | --- | --- | --- |
| > 75% | 1 to 10 µM | 0 to 25% | 0 to 25% | 0 to 25% |  |  |  | O=C(O)c1ccn(C(=O)N2CCN(Cc3ccc(C(F)(F)F)cc3N3CCOCC3)CC2)n1 [Example 3, 1-(4-(2-Morpholino-4-(trifluoromethyl)benzyl)piperazine-1-carbonyl)-1H-pyrazole-3-carboxylic Acid] |
| > 75% |  | 0 to 25% | 0 to 25% | 0 to 25% | > 75% | 0 to 25% |  | CN(Cc1ccc(C(F)(F)F)cc1N1CCOCC1)C1(C)CCN(C(=O)n2ccc(C(=O)O)n2)CC1 [Example 4, 1-(4-Methyl-4-(methyl(2-morpholino-4-(trifluoromethyl)benzyl)amino)piperidine-1-carbonyl)-1H-pyrazole-3-carboxylic Acid] |
| > 75% |  | 0 to 25% | 0 to 25% | 0 to 25% | > 75% | 0 to 25% |  | O=C(O)c1ccn(C(=O)N2CCN(Cc3ccc(C(F)(F)F)cc3N3CCN(C4CC4)CC3)CC2)n1 [Example 6, 1-(4-(2-(4-Cyclopropylpiperazin-1-yl)-4-(trifluoromethyl)benzyl)piperazine-1-carbonyl)-1H-pyrazole-3-carboxylic Acid] |
| > 75% |  | 0 to 25% | 0 to 25% | 0 to 25% | > 75% | 0 to 25% |  | O=C(O)c1ccn(C(=O)N2CCN(Cc3ccc(C(F)(F)F)c(N4CCCC4)c3)CC2)n1 [Example 7, 1-(4-(3-(Pyrrolidin-1-yl)-4-(trifluoromethyl)benzyl)piperazine-1-carbonyl)-1H-pyrazole-3-carboxylic Acid] |
| > 75% |  | 0 to 25% | 0 to 25% | 0 to 25% | > 75% | 0 to 25% |  | O=C(O)c1ccn(C(=O)N2CCN(Cc3ccc(C(F)(F)F)c(-c4nccs4)c3)CC2)n1 [Example 8, 1-(4-(3-(Thiazol-2-yl)-4-(trifluoromethyl)benzyl)piperazine-1-carbonyl)-1H-pyrazole-3-carboxylic Acid] |
| > 75% |  |  | 0 to 25% |  | > 75% |  |  | CN(Cc1ccc(C(F)(F)F)c(N2CCCC2)c1)C1(C)CCN(C(=O)n2ccc(C(=O)O)n2)CC1 [Example 385, 1-(4-methyl-4-(methyl(3-(pyrrolidin-1-yl)-4-(trifluoromethyl)benzyl)amino)piper-idine-1-carbonyl)-1H-pyrazole-3-carboxylic acid] |
| > 75% |  |  | 0 to 25% |  | > 75% |  |  | O=C(O)c1nn(C(=O)N2CCC3(CCN(Cc4cc(Cl)cc(C(F)(F)F)c4)C3)CC2)cc1Cl [Example 388, 4-chloro-1-(2-(3-chloro-5-(trifluoromethyl)benzyl)-2,8-diazaspiro[4.5]decane-8-carbonyl)-1H-pyrazole-3-carboxylic acid] |
| > 75% |  |  |  |  | > 75% |  | 0 to 25% | CN(Cc1ccc(C(F)(F)F)cc1N1CCCCC1)C1(C)CCN(C(=O)n2ccc(C(=O)O)n2)CC1 [Example 397, 1-(4-methyl-4-(methyl(2-(piperidin-1-yl)-4-(trifluoromethyl)benzyl)amino)piper-idine-1-carbonyl)-1H-pyrazole-3-carboxylic acid] |
| > 75% |  |  |  |  | > 75% |  | 0 to 25% | O=C(O)c1ccn(C(=O)N2CCC3(CCCN3C(=O)c3ccc(C(F)(F)F)cc3N3CCCC3)CC2)n1 [Example 403, 1-(1-(2-(pyrrolidin-1-yl)-4-(trifluoromethyl)benzoyl)-1,8-diazaspiro[4.5]decane-8-carbonyl)-1H-pyrazole-3-carboxylic acid] |
| > 75% |  |  |  |  | > 75% |  | 0 to 25% | O=C(O)c1ccn(C(=O)N2CCC3(CCCN3Cc3ccc(C(F)(F)F)cc3N3CCCCC3)CC2)n1 [Example 404, 1-(1-(2-(piperidin-1-yl)-4-(trifluoromethyl)benzyl)-1,8-diazaspiro[4.5]decane-8-carbonyl)-1H-pyrazole-3-carboxylic acid] |
| > 75% |  |  |  |  | > 75% |  | 0 to 25% | O=C(O)c1ccn(C(=O)N2CCC3(CCCN3Cc3ccc(C(F)(F)F)cc3N3CCC(F)CC3)CC2)n1 [Example 413, 1-(1-(2-(4-fluoropiperidin-1-yl)-4-(trifluoromethyl)benzyl)-1,8-diazaspiro[4.5]decane-8-carbonyl)-1H-pyrazole-3-carboxylic acid] |
| > 75% |  |  |  |  | > 75% |  | 0 to 25% | CC(C)(O)COc1cccc(O[C@H]2C[C@@H]3CN(C(=O)n4ccc(C(=O)O)n4)C[C@@H]3C2)c1Cl [Example 451, 1-(trans-5-(2-chloro-3-(2-hydroxy-2-methylpropoxy)phenoxy)octahydro-cyclopenta[c]pyrrole-2-carbonyl)-1H-pyrazole-3-carboxylic acid] |

| SMILES | inhibition at 1 µM (MAGL [1]) | IC50 (FAAH [2]) | inhibition at 1 µM (FAAH [3]) | inhibition at 5 mg/kg (MAGL [4]) | inhibition at 5 mg/kg (FAAH [5]) | inhibition at 1 µM (MAGL [6]) | inhibition at 1 µM (FAAH [2]) | inhibition at 5 mg/kg (MAGL [4]; C57Bl/6J mice) |
| --- | --- | --- | --- | --- | --- | --- | --- | --- |
| C[C@@H]1CN(Cc2ccc(C(F)(F)F)cc2N2C3CCC2COC3)CCN1C(=O)n1ccc(C(=O)O)n1 [Example 393, 1-((2R)-4-(2-(3-oxa-8-azabicyclo[3.2.1]octan-8-yl)-4-(trifluoromethyl)benzyl)-2-methylpiperazine-1-carbonyl)-1H-pyrazole-3-carboxylic acid] | > 75% |  |  | 0 to 25% |  | > 75% |  |  |
| C[C@H]1CN(Cc2ccc(C(F)(F)F)cc2N2C3CCC2COC3)CCN1C(=O)n1ccc(C(=O)O)n1 [Example 395, 1-((2S)-4-(2-(3-oxa-8-azabicyclo[3.2.1]octan-8-yl)-4-(trifluoromethyl)benzyl)-2-methylpiperazine-1-carbonyl)-1H-pyrazole-3-carboxylic acid] | > 75% |  |  |  |  | > 75% |  | 0 to 25% |

From patent publication US10266497B2 (ABIDE THERAPEUTICS, INC., priority 2017, dated 2019)
